Data from US20100022483A1, “Substituted Tetracycline Compounds” (Paratek Pharmaceuticals, Inc., priority 2008, published 2010).
≈ marks a conversion by molar mass, not a printed value. Where two headings read alike, the source gives them in different places.

Tests used:
[1] = system: gram positive bacteria; test: In vitro anti-bacterial activity assay (broth dilution MIC), gram positive bacteria; type: cell-based, S. aureus; settings: 18 h
Description: (§1) Bacterial infections may be caused by a wide variety of gram positive and gram negative bacteria. Some of the compounds of the invention are useful as antibiotics against organisms which are resistant and/or sensitive to other tetracycline compounds. The antibiotic activity of the tetracycline compounds of the invention may by using the in vitro standard broth dilution method described in Waitz, J. A., CLSI, Document M7-A2, vol. 10, no. 8, pp. 13-20, 2nd edition, Villanova, Pa. (1990).
(§2) The following assay was used to determine the efficacy of the tetracycline compounds against gram positive and gram negative bacteria. 2 mg of each compound was dissolved in 100 μl of DMSO. […] The tetracycline compound solutions were diluted to 50 μL volumes, with a test compound concentration of 0.098 μg/ml. Optical density (OD) determinations were made from fresh log-phase broth cultures of the test strains. Dilutions were made to achieve a final cell density of […] CFU/ml. At OD=1, cell densities for different genera were approximately:
(§3) 50 μl of the cell suspensions were added to each well of microtiter plates. The final cell density was approximately 5×10^5 CFU/ml. These plates were incubated at 35° C. in an ambient air incubator for approximately 18 hours. The plates were read with a microplate reader and were visually inspected when necessary. The MIC was defined as the lowest concentration of the tetracycline compound that inhibits growth. Table 3 includes MIC data for several substituted tetracycline compounds.

[2] = system: gram negative bacteria; test: In vitro anti-bacterial activity assay (broth dilution MIC), gram negative bacteria; type: cell-based, E. coli
Description: as §1, §2, §3

[3] = Mammalian cytotoxicity assay (resazurin), COS-1 cells; type: cell-based; settings: African green monkey, read-out: Cytotox. COS-1
Method: (§4) COS-1 and CHO-K1 cell suspensions were prepared, seeded into 96-well tissue culture treated black-walled microtiter plates (density determined by cell line), and incubated overnight at 37° C., in 5% CO2 and approximately 95% humidity. The following day, serial dilutions of compound were prepared under sterile conditions and transferred to cell plates. Cell/Compound plates were incubated under the above conditions for 24 hours. Following the incubation period, media/compound was aspirated and 50 μl of resazurin (0.042 mg/ml in PBS w/Ca and Mg) is added. The plates were then incubated under the above conditions for 2 hours and then placed in the dark at room temperature for an additional 30 minutes. Fluorescence measurements were taken (excitation 535 nm, emission 590 nm). The IC50 (concentration of compound causing 50% growth inhibition) was then calculated. Table 3 includes IC50 data for several substituted tetracycline compounds.

[4] = in vitro; type: cell-based; settings: Chinese hamster, Cytotox. CHO-K1
Method: as §4

[5] = system: 3T3 fibroblast cells; test: In vitro phototoxicity assay (neutral red; UV light-treated vs dark control plates); type: cell-based; settings: for Photo Toxicity UV Tox50: UV light 50 minutes; for Photo Toxicity Dark Tox50: dark control plate
Method: 3T3 fibroblast cells were harvested and plated at a concentration of 1×10^5 cells/mL and the plates were incubated overnight at 37° C., in 5% CO2 and approximately 95% humidity. On the following day the medium was removed from the plates and replaced with Hanks' Balanced Salt Solution (HBSS). Compound dilutions were made in HBSS and added to the plates. For each compound tested, a duplicate plate was prepared that was not exposed to light as a control for compound toxicity. Plates were then incubated in a dark drawer (for controls), or under UV light (meter reading of 1.6-1.8 mW/cm^2) for 50 minutes. Cells were then washed with HBSS, fresh medium was added, and plates were incubated overnight as described above. The following day neutral red was added as an indicator of cell viability. The plates were then incubated for an additional 3 hours. Cells were then washed with HBSS and blotted on absorbent paper to remove excess liquid. A solution of 50% EtOH, 10% glacial acetic acid was added and after 20 minutes incubation the plate's absorbance at 535 nm was read using a Wallac Victor 5 spectrophotometer. The phototoxicity reflected the difference between the light-treated and control cultures. Table 3 includes phototoxicity (μM) data for several substituted tetracycline compounds.

[6] = Staphylococcus aureus, S. aureus MRSA5, read-out: Median MIC's G+ S. aureus MRSA5
[7] = Staphylococcus aureus, S. aureus RN450, read-out: Median MIC's G+ S. aureus RN450
[8] = Streptococcus pneumoniae, S. pneumoniae 157E-Strep, read-out: Median MIC's G+ S. pneumoniae 157E-Strep
[9] = Escherichia coli, 18 h, E. coli D1 209, read-out: Median MIC's G− E. coli D1 209
[10] = Escherichia coli, 18 h, E. coli MG 1655, read-out: Median MIC's G− E. coli MG 1655
[11] = Escherichia coli, ATCC25922, 18 h, E. coli ATCC 25922, read-out: Median MIC's G− E. coli ATCC 25922
[12] = Pseudomonas aeruginosa, 18 h, P. aeruginosa K201 PAO6609, read-out: Median MIC's G− P. aeruginosa K201 PAO6609

Row | Compound | MIC [1, 6] [µg/mL] | MIC [1, 7] [µg/mL] | MIC [1, 8] [µg/mL] | MIC [2, 9] [µg/mL] | MIC [2, 10] [µg/mL] | MIC [2, 11] [µg/mL] | MIC [2, 12] [µg/mL] | IC50 at 24 h [3] [µM] | IC50 at 24 h [4] [µM] | Photo Toxicity UV Tox50 [5] [µM] | Photo Toxicity Dark Tox50 [5] [µM]
1 | CN1CCN(C(=O)c2cccc(-c3ccc(O)c4c3C[C@H]3C[C@H]5[C@@H](N(C)C)C(O)=C(C(N)=O)C(=O)[C@@]5(O)C(O)=C3C4=O)c2)CC1 [D] | 64 (≈ 104 µM) | 32 (≈ 51.9 µM) | 4 (≈ 6.49 µM) | 64 (≈ 104 µM) | 64 (≈ 104 µM) | 64 (≈ 104 µM) | 64 (≈ 104 µM) | > 131 | > 131 | >130.51 | >130.51
2 | CN1CCN(CC(=O)c2ccc(O)c3c2C[C@H]2C[C@H]4[C@H](N(C)C)C(O)=C(C(N)=O)C(=O)[C@@]4(O)C(O)=C2C3=O)CC1 [BB] | 16 (≈ 28.8 µM) | 2 (≈ 3.61 µM) | 1 (≈ 1.8 µM) | 64 (≈ 115 µM) | 8 (≈ 14.4 µM) | 32 (≈ 57.7 µM) | 64 (≈ 115 µM) | > 136 | > 136 | >135.54 | >135.54
3 | COCCNCc1ccc(-c2ccc(O)c3c2C[C@H]2C[C@H]4[C@H](N(C)C)C(O)=C(C(N)=O)C(=O)[C@@]4(O)C(O)=C2C3=O)cc1 [BG] | 1 (≈ 1.73 µM) | 0.06 (≈ 0.104 µM) | 0.06 (≈ 0.104 µM) | 0.5 (≈ 0.866 µM) | 0.5 (≈ 0.866 µM) | 0.25 (≈ 0.433 µM) | 64 (≈ 111 µM) | > 95.6 | 45.3 to 125 | >146.03 | >146.03
4 | CN(C)[C@@H]1C(O)=C(C(N)=O)C(=O)[C@@]2(O)C(O)=C3C(=O)c4c(O)ccc(C(=O)CNCC(N)=O)c4C[C@H]3C[C@@H]12 [BZ] | 64 (≈ 121 µM) | 4 (≈ 7.57 µM) | 4 (≈ 7.57 µM) | 64 (≈ 121 µM) | 64 (≈ 121 µM) | 64 (≈ 121 µM) | 64 (≈ 121 µM) | > 119 | > 119 | >118.96 | >118.96
5 | CO/N=C/c1ccc(-c2ccc(O)c3c2C[C@H]2C[C@H]4[C@H](N(C)C)C(O)=C(C(N)=O)C(=O)[C@@]4(O)C(O)=C2C3=O)o1 (stereo in doubt) [AZ] | 1 (≈ 1.86 µM) | 0.13 (≈ 0.242 µM) | 0.06 (≈ 0.112 µM) | 64 (≈ 119 µM) | – | – | – | < 2.44 | 3.04 | >156.79 | >156.79
6 | CN(C)[C@H]1C(O)=C(C(N)=O)C(=O)[C@@]2(O)C(O)=C3C(=O)c4c(O)ccc(-c5cccc(C(N)=O)c5)c4C[C@H]3C[C@@H]12 (stereo in doubt) [B] | 64 (≈ 120 µM) | 2 (≈ 3.75 µM) | 2 (≈ 3.75 µM) | 64 (≈ 120 µM) | 64 (≈ 120 µM) | 64 (≈ 120 µM) | 64 (≈ 120 µM) | > 15.7 | > 15.7 | >156.64 | >156.64
7 | CN(C)[C@@H]1C(O)=C(C(N)=O)C(=O)[C@@]2(O)C(O)=C3C(=O)c4c(O)ccc(C(=O)Cn5ccnc5)c4C[C@H]3C[C@@H]12 [CF] | 64 (≈ 122 µM) | 4 (≈ 7.66 µM) | 4 (≈ 7.66 µM) | 64 (≈ 122 µM) | 64 (≈ 122 µM) | 64 (≈ 122 µM) | 64 (≈ 122 µM) | > 49.9 | > 49.9 | >161.01 | >161.01
8 | COCCN(C)CC(=O)c1ccc(O)c2c1C[C@H]1C[C@H]3[C@H](N(C)C)C(O)=C(C(N)=O)C(=O)[C@@]3(O)C(O)=C1C2=O [BO] | 4 (≈ 7.36 µM) | 0.5 (≈ 0.92 µM) | 0.25 (≈ 0.46 µM) | 64 (≈ 118 µM) | 2 (≈ 3.68 µM) | 2 (≈ 3.68 µM) | 64 (≈ 118 µM) | > 154 | > 154 | >154.09 | >154.09
